# Measurements taken from patent US12208181B2, “Medication infusion components and systems” (MEDTRONIC MINIMED, INC., priority 2017, dated 2025).
# Entries after “also recorded” stand apart in the source; their conditions may differ.
# Assays:
# diabetic porcine model [1] = experiment: Insulin infusion site-loss study in diabetic porcine model (extended wear infusion set); type: in vivo, pig; details: for Effect on site-loss compared with control: diabetic pigs, agent given with insulin (Humalog) infusion, control without agent; for No site loss for: Sof-Set
# Procedure: The objectives of this study include duplicating the site-loss phenomena observed in previous studies using a diabetic porcine model. Additionally, various infusion set configurations are evaluated for reducing site-loss and extending infusion set wear. Further, site-loss is mitigated using a response-inhibiting agent and/or infusion pump to increase reliability of wear for 3 days and extend infusion set wear beyond 3 days.
# The objectives of this study include: duplicating the site-loss phenomena observed in previous studies using the diabetic porcine model; using the established diabetic porcine model to evaluate the effects of various infusion set designs on infusion site-loss; and testing if site-loss can be mitigated by direct pump infusing of immunosuppressant/anti-inflammatory drugs, and/or by modifying infusion set by drug coating.
# This study is designed so that each set (inserted under anesthesia) is to be worn for 1 week unless there was set failure/dislodge. Glucose is monitored by a blood glucose meter and Enlite™ sensor. The criteria for determining site loss is that blood glucose is greater than 350 mg/dl and fails to decrease following an insulin dose correction. During biopsy pumps are removed but the cannula is maintained in-situ. Site skin is examined for edema/erythema (swell/redness) (see FIG. 8).
# diabetic pig = experiment: Histopathology of infusion sites (inflammation at catheter tip and body); type: in vivo
# Source text: FIG. 2A is a series of histologic evaluations at the catheter tip showing the inflammatory response (score), and size of the area with tissue reaction. “*” indicates the catheter location and “F” indicates normal fat. […] FIG. 2B is a series of graphs illustrating the inflammation at the catheter tip for diabetic and non-diabetic pigs. Localized inflammation loosely correlated with site-loss.
# FIG. 2C is a series of graphs illustrating the predominate inflammation cells at the catheter tip and catheter body (qualitative). To isolate the main inflammation contributors, a catheter, a catheter infused with insulin (Humalog™), and a catheter infused with placebo were placed on a diabetic pig at the same time.
# FIG. 2D is a series of graphs illustrating the predominate inflammation cells at the catheter tip and catheter body of an insulin injection port (i-Port™). To isolate the main inflammation contributors, a catheter, a catheter infused with insulin, and a catheter infused with placebo were placed on a diabetic pig. Compared to continuous infusion, the giant cells are missing in the i-Port™ study. […] As observed by the pathologist, the pigs may have developed a hypersensitivity to the Humalog™ and such a reaction would contribute to the inflammation seen (the degree that hypersensitivity is influencing the inflammation is unclear but it could be one of the main drivers).
# diabetic Yucatan pigs = experiment: Site-loss evaluation during CSII (Example 1); type: in vivo
# Source text: (§1) The goal of studying insulin infusion site-loss using a diabetic porcine model is to establish the methods and animal model necessary to reproduce the phenomenon of site-loss in Continuous Subcutaneous Insulin Infusion (CSII). Methodologies are established for evaluating infusion sites in healthy and diabetic pigs, including device placement and animal management, glucose monitoring, insulin detection, pharmacokinetics, site harvesting, and pathological evaluation. The host response to implanted functional devices is assessed in healthy and diabetic pigs. Parameters that are believed to impact site-loss are varied until site-loss is observed.
# Site-loss was evaluated using a criteria of a prolonged high blood glucose level (greater than 350 mg/dl) as well as being ineffectively controlled by increasing insulin basal/bolus rate. Site-loss observed was pig dependent, sometimes site-dependent. […] The other two pigs (#341425 and #341426) had no site-loss in 7 days if a proper site was located. In general, the pigs with observed site-loss were less responsive to a Humalog™ dose. Histologically, the predominant tissue response was inflammation and, with longer infusion, fibrosis. Inflammation scores trended to be of higher grade in diabetic pigs compared to normal pigs, with a larger inflammation area around the catheter tip. […]
# [2] = system: normal and diabetic Yucatan pigs; experiment: PK/PD study: blood glucose response to Humalog; type: in vivo
# Source text: as §1
# diabetic porcine model [3] = experiment: Local toxicity observation in diabetic porcine model; details: prefilled heparin/insulin, Sof-Set; heparin 100-800 U/mL insulin (U100)
# [4] = diabetic pigs, compared to catheter and placebo
compound,measurement,setting,value
"C[C@H]1C[C@H]2[C@@H]3CCC4=CC(=O)C=C[C@]4(C)[C@@]3(F)[C@@H](O)C[C@]2(C)[C@@]1(O)C(=O)COP(=O)([O-])[O-].[Na+].[Na+] [BSP, Betamethasone Sodium phosphate]",Effect on site-loss compared with control,diabetic porcine model [1],performing significantly worse than the control
"C[C@@H]1C[C@H]2[C@@H]3CCC4=CC(=O)C=C[C@]4(C)[C@@]3(F)[C@@H](O)C[C@]2(C)[C@@]1(O)C(=O)COP(=O)(O)O [DXP, Dexamethasone Phosphate]",Effect on site-loss compared with control,diabetic porcine model [1],performing significantly worse than the control
CO[C@H]1C[C@@H]2CC[C@@H](C)[C@@](O)(O2)C(=O)C(=O)N2CCCC[C@H]2C(=O)O[C@H]([C@H](C)C[C@@H]2CC[C@@H](O)[C@H](OC)C2)CC(=O)[C@H](C)/C=C(\C)[C@@H](O)[C@@H](OC)C(=O)[C@H](C)C[C@H](C)/C=C/C=C/C=C/1C [rapamycin],Effect on Site-Loss: site-loss after / duration of wear,"diabetic porcine model [1]; 1 pig using Sof-Set, rapamycin later found degraded in solution after use",5 days
same,Signs of improvement: recovery after,diabetic porcine model [1]; rapamycin dosed with Humalog,around 6 days
same,No site loss for,"diabetic porcine model [1]; rapamycin spiked in insulin, around 0.6 μg/day",more than 6 days
Insulin lispro [Humalog],Order of evaluated inflammation scores,"diabetic pig; catheter, catheter infused with insulin (Humalog), catheter infused with placebo on one diabetic pig",insulin≥placebo≥catheter; also recorded: insulin≥placebo≥cannula
same,Localized inflammation,diabetic pig; [4],associated with increased localized inflammation
same,Localized tissue fibrosis,diabetic pig; [4],main contributor to localized tissue fibrosis
same,Site-loss observed at,"diabetic Yucatan pigs; pigs #341423 and #341424, blood glucose >350 mg/dl criterion",approximately 3 days
same,No site-loss in,"diabetic Yucatan pigs; pigs #341425 and #341426, if a proper site was located",> 7 days
same,Blood glucose lowering,[2],effectively lower blood glucose level
dextran,Infusion site active,diabetic porcine model [1]; Sof-Set with dextran dosed insulin (FIG. 22),up to 6 days
same,Effect on site-loss compared with control,diabetic porcine model [1],performing significantly better than the control
same,Efficacy in extending infusion set wear / site-loss mitigation (in words),diabetic porcine model [1]; diabetic porcine model,efficacy of dextran in extending infusion set wear
heparin,Local toxicity,diabetic porcine model [3],No local toxicity was observed
same,Infusion site active,"diabetic porcine model [1]; Sof-Set with heparin dosed insulin (FIGS. 17, 18)",up to 13 days
same,Site-loss (glucose monitoring),"diabetic porcine model [1]; U100 Humalog with heparin sodium, actual 3.55 mg/mL or 685 U/mL, continuous infusion, pigs IM3 and IM4",> 6 days
same,Effect on site-loss compared with control,diabetic porcine model [1],performing significantly better than the control
same,No site loss for,"diabetic porcine model [1]; prefilled heparin/insulin, heparin 100-800 U/mL insulin (U100)",greater than 13 days
